Species: Rattus norvegicus
Assay: DrugMatrix - Regimen: Daily Repeat
Type: toxicity, organism-based, Sprague-Dawley
Parameters: regimen Daily Repeat, gender Male, age 6-8 weeks
Details: in vivo, po, route oral GAVAGE, vehicle .5 % CMC; for ABSOLUTE BASOPHIL / ABSOLUTE EOSINOPHIL / ABSOLUTE LYMPHOCYTE / ABSOLUTE MONOCYTE / ABSOLUTE SEGMENTED NEUTROPHIL / BASOPHIL / EOSINOPHIL / ERYTHROCYTE COUNT / HEMATOCRIT / HEMOGLOBIN / LEUKOCYTE COUNT / LYMPHOCYTE / MEAN CORPUSCULAR HEMOGLOBIN / MEAN CORPUSCULAR HEMOGLOBIN CONCENTRATION / MEAN CORPUSCULAR VOLUME / MONOCYTE / NEUTROPHIL / NUCLEATED RED BLOOD CELLS / PLATELET COUNT: tissue Blood; for ALANINE AMINOTRANSFERASE / ALBUMIN / ALKALINE PHOSPHATASE / ASPARTATE AMINOTRANSFERASE / BLOOD UREA NITROGEN / CARBON DIOXIDE / CHLORIDE / CHOLESTEROL / CREATINE PHOSPHOKINASE / CREATININE / GLUCOSE / LACTATE DEHYDROGENASE / LIPASE / PHOSPHORUS / POTASSIUM / SODIUM / TOTAL BILIRUBIN / TOTAL PROTEIN / URIC ACID: tissue Plasma
[1] = 0 mg/kg, 72 h, dose level Control, time 3 day
[2] = 0 mg/kg, 120 h, dose level Control, time 5 day
[3] = 25 mg/kg, 72 h, dose level Low, time 3 day

SMILES: C[C@](O)(CS(=O)(=O)c1ccc(F)cc1)C(=O)Nc1ccc(C#N)c(C(F)(F)F)c1 [(R)-BICALUTAMIDE]
- ABSOLUTE BASOPHIL [1]: 0 CELLS/uL
- ABSOLUTE EOSINOPHIL [1]: 171.33 CELLS/uL
- ABSOLUTE LYMPHOCYTE [1]: 13776.5 CELLS/uL
- ABSOLUTE MONOCYTE [1]: 180.83 CELLS/uL
- ABSOLUTE SEGMENTED NEUTROPHIL [1]: 1121.33 CELLS/uL
- BASOPHIL [1]: 0%
- EOSINOPHIL [1]: 1%
- ERYTHROCYTE COUNT [1]: 5.56 x10E6/uL
- HEMATOCRIT [1]: 34.75%
- HEMOGLOBIN [1]: 13.68 G/DL
- LEUKOCYTE COUNT [1]: 15.25 x10E3/uL
- LYMPHOCYTE [1]: 90.17%
- MEAN CORPUSCULAR HEMOGLOBIN [1]: 24.6 pg
- MEAN CORPUSCULAR HEMOGLOBIN CONCENTRATION [1]: 39.4 G/DL
- MEAN CORPUSCULAR VOLUME [1]: 62.48 fL
- MONOCYTE [1]: 1.17%
- NEUTROPHIL [1]: 7.67%
- NUCLEATED RED BLOOD CELLS [1]: 0 /100WBC
- PLATELET COUNT [1]: 1342 x10E3/uL
- ALANINE AMINOTRANSFERASE [1]: 49.67 u/L
- ALBUMIN [1]: 4.15 G/DL
- ALKALINE PHOSPHATASE [1]: 346.83 u/L
- ASPARTATE AMINOTRANSFERASE [1]: 108.17 u/L
- BLOOD UREA NITROGEN [1]: 17.33 mg/dL
- CARBON DIOXIDE [1]: 25 mmol/L
- CHLORIDE [1]: 100.83 MEQ/L
- CHOLESTEROL [1]: 66.83 mg/dL
- CREATINE PHOSPHOKINASE [1]: 788 u/L
- CREATININE [1]: 0.18 mg/dL
- GLUCOSE [1]: 151.67 mg/dL
- LACTATE DEHYDROGENASE [1]: 982.5 u/L
- LIPASE [1]: 10.33 u/L
- PHOSPHORUS [1]: 11.23 mg/dL
- POTASSIUM [1]: 6.37 MEQ/L
- SODIUM [1]: 141.02 MEQ/L
- TOTAL BILIRUBIN [1]: 0.18 mg/dL
- TOTAL PROTEIN [1]: 5.9 G/DL
- URIC ACID [1]: 1.8 mg/dL
- ABSOLUTE BASOPHIL [2]: 0 CELLS/uL
- ABSOLUTE EOSINOPHIL [2]: 69 CELLS/uL
- ABSOLUTE LYMPHOCYTE [2]: 13632.83 CELLS/uL
- ABSOLUTE MONOCYTE [2]: 139.83 CELLS/uL
- ABSOLUTE SEGMENTED NEUTROPHIL [2]: 1225 CELLS/uL
- BASOPHIL [2]: 0%
- EOSINOPHIL [2]: 0.33%
- ERYTHROCYTE COUNT [2]: 5.52 x10E6/uL
- HEMATOCRIT [2]: 33.98%
- HEMOGLOBIN [2]: 13.22 G/DL
- LEUKOCYTE COUNT [2]: 15.07 x10E3/uL
- LYMPHOCYTE [2]: 90.83%
- MEAN CORPUSCULAR HEMOGLOBIN [2]: 23.95 pg
- MEAN CORPUSCULAR HEMOGLOBIN CONCENTRATION [2]: 38.9 G/DL
- MEAN CORPUSCULAR VOLUME [2]: 61.53 fL
- MONOCYTE [2]: 0.83%
- NEUTROPHIL [2]: 8%
- NUCLEATED RED BLOOD CELLS [2]: 0 /100WBC
- PLATELET COUNT [2]: 1196 x10E3/uL
- ALANINE AMINOTRANSFERASE [2]: 49.17 u/L
- ALBUMIN [2]: 4.2 G/DL
- ALKALINE PHOSPHATASE [2]: 352.33 u/L
- ASPARTATE AMINOTRANSFERASE [2]: 89.67 u/L
- BLOOD UREA NITROGEN [2]: 18 mg/dL
- CARBON DIOXIDE [2]: 27.67 mmol/L
- CHLORIDE [2]: 101 MEQ/L
- CHOLESTEROL [2]: 72.83 mg/dL
- CREATINE PHOSPHOKINASE [2]: 417.5 u/L
- CREATININE [2]: 0.18 mg/dL
- GLUCOSE [2]: 150.5 mg/dL
- LACTATE DEHYDROGENASE [2]: 517.33 u/L
- LIPASE [2]: 9 u/L
- PHOSPHORUS [2]: 11.87 mg/dL
- POTASSIUM [2]: 6.57 MEQ/L
- SODIUM [2]: 143.62 MEQ/L
- TOTAL BILIRUBIN [2]: 0.2 mg/dL
- TOTAL PROTEIN [2]: 6.08 G/DL
- URIC ACID [2]: 1.45 mg/dL
- ABSOLUTE BASOPHIL [3]: 0 CELLS/uL
- ABSOLUTE EOSINOPHIL [3]: 0 CELLS/uL
- ABSOLUTE LYMPHOCYTE [3]: 11565 CELLS/uL
- ABSOLUTE MONOCYTE [3]: 208.33 CELLS/uL
- ABSOLUTE SEGMENTED NEUTROPHIL [3]: 926.67 CELLS/uL
- BASOPHIL [3]: 0%
- EOSINOPHIL [3]: 0%
- ERYTHROCYTE COUNT [3]: 5.66 x10E6/uL
- HEMATOCRIT [3]: 35.2%
- HEMOGLOBIN [3]: 13.9 G/DL
- LEUKOCYTE COUNT [3]: 12.7 x10E3/uL
- LYMPHOCYTE [3]: 91%
- MEAN CORPUSCULAR HEMOGLOBIN [3]: 24.57 pg
- MEAN CORPUSCULAR HEMOGLOBIN CONCENTRATION [3]: 39.47 G/DL
- MEAN CORPUSCULAR VOLUME [3]: 62.23 fL
- MONOCYTE [3]: 1.67%
- NEUTROPHIL [3]: 7.33%
- NUCLEATED RED BLOOD CELLS [3]: 0.33 /100WBC
- PLATELET COUNT [3]: 1165 x10E3/uL
- ALANINE AMINOTRANSFERASE [3]: 46.33 u/L
- ALBUMIN [3]: 4.1 G/DL
- ALKALINE PHOSPHATASE [3]: 367.67 u/L
- ASPARTATE AMINOTRANSFERASE [3]: 75.67 u/L
- BLOOD UREA NITROGEN [3]: 14.33 mg/dL
- CARBON DIOXIDE [3]: 27 mmol/L
- CHLORIDE [3]: 102.67 MEQ/L
- CHOLESTEROL [3]: 80.33 mg/dL
- CREATINE PHOSPHOKINASE [3]: 447.67 u/L
- CREATININE [3]: 0.21 mg/dL
- GLUCOSE [3]: 137.67 mg/dL
- LACTATE DEHYDROGENASE [3]: 242 u/L
- LIPASE [3]: 10.67 u/L
- PHOSPHORUS [3]: 11.97 mg/dL
- POTASSIUM [3]: 6.21 MEQ/L
- SODIUM [3]: 143.67 MEQ/L
- TOTAL BILIRUBIN [3]: 0.2 mg/dL
- TOTAL PROTEIN [3]: 5.87 G/DL
- URIC ACID [3]: 1.37 mg/dL

Reference: ChEMBL document CHEMBL3885881, “DrugMatrix”
